From paper PMC11413853, “Discovery of VU6007496: Challenges in the Development of an M1 Positive Allosteric Modulator Backup Candidate” (ACS Chemical Neuroscience, 2024)

Columns and labels:
Glutamate, Kainate = assay: Eurofins radioligand binding; design: species or system Rat; conditions: specific binding
Hepatocyte MET ID, rat = assay type: in vitro ADME; conditions: 4-h incubation
Excerpt: More concerning were the results generated via outsourced multispecies hepatocyte MET ID, which were drastically different than the liver S9MET ID. The extent of metabolism for VU6007496 with rat, dog, monkey and human hepatocytes was 64.7, 51.5, 63.9 and 99.5%, respectively (Figure 8). […] In human hepatocytes, PAM 11 was metabolized primarily to Metabolite A (24), the result of oxidative N-demethylation of the southern pyrazole. The other minor metabolites were oxidation on the tetrahydropyran moiety and included ring opening (Metabolite F, 25).[21]

[1] = test system: Calcium Channel L-Type, Benzothiazepine; assay: Eurofins radioligand binding; design: species or system Rat; conditions: specific binding
[2] = test system: Transporter, Norepinephrine (NET); assay: Eurofins radioligand binding; design: species or system Human; conditions: specific binding
Adrenergic α1D = assay: Eurofins radioligand binding; design: species or system Human; conditions: specific binding
Muscarinic M3 = assay: Eurofins radioligand binding; design: species or system Human; conditions: specific binding
CYP1A2 = assay: CYP induction (mRNA) in cryopreserved human hepatocytes, CYP1A2; assay type: in vitro ADME; conditions: three donors
Excerpt: To advance 11 as a candidate and into IND-enabling studies, we next needed to better understand its CYP profile to minimize drug–drug interactions in the clinic. […] We were pleased to see the contribution of another CYP beyond 3A4 for the metabolism of 11.[21] In parallel, we investigated the ability of PAM 11 to induce the expression of CYP450s (measuring mRNA) in cryopreserved human hepatocytes from three separate donors.

## Cn1ccc(-c2ccc(Cc3cc(C(=O)NC4CCOCC4)nc4ccn(C)c34)cc2)n1 [compound 11]
Glutamate, Kainate
  % Inhibition at 10 µM: -19%
Hepatocyte MET ID, rat
  extent of metabolism, rat hepatocytes: 64.7%
[1]
  % Inhibition at 10 µM: 12%
[2]
  % Inhibition at 10 µM: 12%
Adrenergic α1D
  % Inhibition at 10 µM: -6%
Muscarinic M3
  % Inhibition at 10 µM: -4%
CYP1A2
  CYP1A2 induction (mRNA): ~3 fold
